Measured values published in US11285135B2 (AMGEN INC., priority 2016, dated 2022).

The molecules below were run against GDP-bound protein (aa 1-169), containing both G12C and C118A amino acid substitutions (Homo sapiens, UniProt P01116, C118A/G12C) (assay: Coupled Nucleotide Exchange Assay (SOS-mediated nucleotide exchange, AlphaScreen)). Conditions: 2 hours compound pre-incubation.
Format: biochemical
Description: Coupled Nucleotide Exchange Assay: Purified GDP-bound […] protein (aa 1-169), containing both G12C and C118A amino acid substitutions and an N-terminal His-tag, was pre-incubated with a compound dose-response titration for 2 hours in assay buffer (25 mM HEPES pH 7.4, 10 mM MgCl2, and 0.01% Triton X-100). Following compound pre-incubation, purified SOS protein (aa 564-1049) and GTP (Roche 10106399001) were added to the assay wells and incubated for an additional hour. […] The assay plates were then read on a PerkinElmer EnVision Multilabel Reader, using AlphaScreen® technology, and data were analyzed using a 4-parameter logistic model to calculate IC50 values.

GDP-bound protein (aa 1-169), containing both G12C and C118A amino acid substitutions, sequence (P01116 1-169 isoform P01116-2 G12C/C118A): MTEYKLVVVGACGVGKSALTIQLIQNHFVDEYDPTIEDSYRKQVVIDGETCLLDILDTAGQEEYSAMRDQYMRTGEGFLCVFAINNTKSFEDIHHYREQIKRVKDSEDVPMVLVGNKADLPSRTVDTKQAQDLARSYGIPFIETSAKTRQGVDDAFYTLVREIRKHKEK

| Compound | Coupled exchange IC50 [µM] |
| --- | --- |
| C=CC(=O)N1CCN(c2snc3c(F)c(-c4ccc(F)cc4F)c(Cl)cc23)CC1 [Example 3-7, 1-(4-(5-chloro-6-(2,4-difluorophenyl)-7-fluoro-2,1-benzothiazol-3-yl)-1-piperazinyl)-2-propen-1-one] | 6.98 |
| C=CC(=O)N1CCN(c2snc3c(F)c(-c4cccc5ccc(=O)[nH]c45)c(Cl)cc23)CC1 [Example 3-2, 8-(5-chloro-7-fluoro-3-(4-(2-propenoyl)-1-piperazinyl)-2,1-benzothiazol-6-yl)-2(1H)-quinolinone] | >250 |
| C=CC(=O)N1CCN(c2snc3c(F)c(-c4cc(O)c(Cl)cc4Cl)c(Cl)cc23)CC1 [Example 3-17, 1-(4-(5-chloro-6-(2,4-dichloro-5-hydroxyphenyl)-7-fluoro-2,1-benzothiazol-3-yl)-1-piperazinyl)-2-propen-1-one] | 5.48 |
| C=CC(=O)N1CCN(c2snc3c(F)c(-c4cc(O)cc5ccccc45)c(Cl)cc23)CC1C(N)=O (racemic) [Example 1-12, 4-(5-chloro-7-fluoro-6-(3-hydroxy-1-naphthalenyl)-2,1-benzothiazol-3-yl)-1-(2-propenoyl)-2-piperazinecarboxamide] | 11.8 |
| C=CC(=O)N1CCN(c2snc3c(F)c(-c4cc(N)ccc4F)c(Cl)cc23)CC1 [Example 3-14, 1-(4-(6-(5-amino-2-fluorophenyl)-5-chloro-7-fluoro-2,1-benzothiazol-3-yl)-1-piperazinyl)-2-propen-1-one] | 5.64 |
| C=CC(=O)N1CCN(c2snc3cc(-c4c(F)cccc4OC)c(Cl)cc23)CC1 [Example 1-5, 1-(4-(5-chloro-6-(2-fluoro-6-methoxyphenyl)-2,1-benzothiazol-3-yl)-1-piperazinyl)-2-propen-1-one] | 6.66 |

Results, then the molecule that gave them:

| Coupled exchange IC50 [µM] | Compound |
| --- | --- |
| 15.2 | C=CC(=O)N1CCN(c2snc3c(F)c(-c4cc(OC)cc5cnn(C)c45)c(Cl)cc23)CC1 [Example 19-1, 1-(4-(5-chloro-7-fluoro-6-(5-methoxy-1-methyl-1H-indazol-7-yl)-2,1-benzothiazol-3-yl)-1-piperazinyl)-2-propen-1-one] |
| 14.2 | C=CC(=O)NC1(CO)CN(c2snc3c(F)c(-c4cc(O)cc5ccccc45)c(Cl)cc23)C1 [Example 5-3, N-(1-(5-chloro-7-fluoro-6-(3-hydroxy-1-naphthalenyl)-2,1-benzothiazol-3-yl)-3-(hydroxymethyl)-3-azetidinyl)-2-propenamide] |
| 2.56 | C=CC(=O)N1CCN(c2nnc(N3CCCCC3)c3cc(-c4c(O)cccc4F)c(Cl)cc23)CC1 [Example 15, 1-(4-(7-Chloro-6-(2-fluoro-6-hydroxyphenyl)-4-(1-piperidinyl)-1-phthalazinyl)-1-piperazinyl)-2-propen-1-one] |
| >250 | C=CC(=O)N1CC2(C1)CN(c1snc3c(F)c(-c4cc(OC)cc5ccccc45)c(Cl)cc13)C2 [Example 4-3, 1-(6-(5-chloro-7-fluoro-6-(3-methoxy-1-naphthalenyl)-2,1-benzothiazol-3-yl)-2,6-diazaspiro[3,3]heptan-2-yl)-2-propen-1-one] |
| 28.6 | C=CC(=O)N1CCN(c2nnc(OC)c3cc(-c4c(O)cccc4F)c(Cl)cc23)CC1 (single isomer, unassigned) [Example 32, 2-(1-(4-Acryloyl-1-piperazinyl)-7-chloro-4-methoxy-6-phthalazinyl)-3-fluorophenol] |
| 32.0 | C=CC(=O)N1CCN(c2snc3c(F)c(-c4cnccc4C(C)C)c(Cl)cc23)CC1 [Example 3-21, 1-(4-(5-chloro-7-fluoro-6-(4-(2-propanyl)-3-pyridinyl)-2,1-benzothiazol-3-yl)-1-piperazinyl)-2-propen-1-one] |
| 24.5 | C=CC(=O)N1CCN(c2nnc(-c3ccccc3C)c3cc(-c4c(O)cccc4F)c(Cl)cc23)CC1 [Example 10-1, 1-(4-(7-Chloro-6-(2-fluoro-6-hydroxyphenyl)-4-(2-methylphenyl)-1-phthalazinyl)-1-piperazinyl)-2-propen-1-one] |
